In patent US9850227B2 (YUHAN CORPORATION, priority 2011, dated 2017):
Counter-ions that a name gives are not always drawn.

target: T1, human 5-HT4(a) (Homo sapiens, UniProt Q13639); experiment: Evaluation of agonistic activity in CHO-K1 cells expressing human 5-HT4(a) (GeneBIAzer HTR4-CRE-bla CHO-K1 cells, beta-lactamase fluorescence ratio, EC50 from 8 concentrations); assay type: cell-based
T1 construct: host or cells: GeneBIAzer HTR4-CRE-bla CHO-K1 cells
In short: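 HTR4-CRE-bla CHO-K1 cells (10^4 per well, overnight in 1% FBS medium) exposed to compound for 5 h, then beta-lactamase substrate 2 h in the dark. Fluorescence ratio at 465/535 nm after 410 nm excitation; EC50 by non-linear regression over 8 concentrations.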

T1 sequence (Q13639 1-387 isoform Q13639-2): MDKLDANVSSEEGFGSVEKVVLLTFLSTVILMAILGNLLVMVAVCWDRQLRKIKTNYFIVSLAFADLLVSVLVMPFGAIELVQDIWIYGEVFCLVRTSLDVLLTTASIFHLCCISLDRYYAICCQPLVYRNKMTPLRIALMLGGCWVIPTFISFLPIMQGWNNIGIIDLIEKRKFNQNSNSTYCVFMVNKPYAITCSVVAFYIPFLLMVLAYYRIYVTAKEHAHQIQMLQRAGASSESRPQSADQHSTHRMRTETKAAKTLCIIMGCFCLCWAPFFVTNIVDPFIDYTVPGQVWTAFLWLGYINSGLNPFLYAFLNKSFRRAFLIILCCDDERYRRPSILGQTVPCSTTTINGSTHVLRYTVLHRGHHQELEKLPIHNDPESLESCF

Row | EC50 [nM] | SMILES
1 | 0.075 | CCCc1cc(N2CCC[C@H](NCc3ccc(O)cc3)C2)nc(Nc2ccc(C)c(C#N)c2)n1 [Example 164, (S)-5-{4-[3-(4-hydroxybenzylamino)piperidin-1-yl]-6-propylpyrimidin-2-ylamino}-2-methylbenzonitrile]
2 | 0.0047 | CCCCc1cc(N2CCC[C@@H](NC)C2)nc(Nc2ccc(C)c(N)c2)n1 [Example 319, (R)—N^1-{4-butyl-6-[3-(methylamino)piperidin-1-yl]pyrimidin-2-yl}-4-methylbenzene-1,3-diamine]
3 | 0.4 | CCCc1cc(N2CCCC3CCCCC32)nc(Nc2cccc(SC)c2)n1 (stereo not drawn) [Example 198, N-(3-methylthiophenyl)-4-(octahydroquinolin-1(2H)-yl)-6-propylpyrimidin-2-amine]
4 | 0.102 | CCCCc1cc(N2CCC[C@@H](N)C2)nc(Nc2ccc(F)c(C(F)(F)F)c2)n1 [Example 348, (R)-4-(3-aminopiperidin-1-yl)-6-butyl-N-[4-fluoro-3-(trifluoromethyl)phenyl]pyrimidin-2-amine]
5 | 0.27 | CCCc1cc(N2CCCCC2CCO)nc(Nc2ccc3c(C)cc(=O)oc3c2)n1 (stereo not drawn) [Example 146, 7-{4-[2-(2-hydroxyethyl)piperidin-1-yl]-6-propylpyrimidin-2-ylamino}-4-methyl-2H-chromen-2-one]
6 | 0.006 | CCCCc1cc(N2CCC[C@@H](N)C2)nc(Nc2ccc(N)c([N+](=O)[O-])c2)n1 [Example 337, (R)—N^1-[4-(3-aminopiperidin-1-yl)-6-butylpyrimidin-2-yl]-3-nitrobenzene-1,4-diamine dihydrochloride]
7 | 0.0094 | CCCCc1cc(N2CCC[C@@H](NC(C)=O)C2)nc(Nc2ccc(N)c(C#N)c2)n1 [Example 243, (R)—N-{1-[2-(4-amino-3-cyanophenylamino)-6-butylpyrimidin-4-yl]piperidin-3-yl}acetamide]
8 | 0.047 | CCCc1cc(N2CCC[C@@H](NC)C2)nc(Nc2ccc(C)c(N)c2)n1 [Example 310, (R)-4-methyl-N^1-{4-[3-(methylamino)piperidin-1-yl]-6-propylpyrimidin-2-yl}benzene-1,3-diamine]
9 | 0.0041 | CCCc1cc(N2CCC[C@@H](NCC3CC3)C2)nc(Nc2cc(N)cc(C#N)c2)n1 [Example 229, (R)-3-amino-5-{4-[3-(cyclopropylmethylamino)piperidin-1-yl]-6-propylpyrimidin-2-ylamino}benzonitrile]
10 | 0.0049 | CCCc1cc(N2CCNC[C@H]2C)nc(Nc2ccc(N)c([N+](=O)[O-])c2)n1 [Example 128, (R)-N^1-[4-(2-methylpiperazin-1-yl)-6-propylpyrimidin-2-yl]-3-nitrobenzene-1,4-diamine]
11 | 0.023 | CCCCc1cc(N2CCC[C@@H](N)C2)nc(Nc2ccc(C)c(C#N)c2)n1 [Example 293, (R)-5-[4-(3-aminopiperidin-1-yl)-6-butylpyrimidin-2-ylamino]-2-methylbenzonitrile]
12 | 0.014 | CCCCc1cc(N2CCC[C@@H](NC(C)=O)C2)nc(Nc2cc(N)cc(C(F)(F)F)c2)n1 [Example 237, (R)—N-{1-[2-(3-amino-5-trifluoromethylphenylamino)-6-butylpyrimidin-4-yl]piperidin-3-yl}acetamide]
13 | 0.073 | CCCc1cc(N2CCCCC2CCO)nc(Nc2cccc(SC)c2)n1 (stereo not drawn) [Example 25, 2-(1-{2-[3-(methylthio)phenylamino]-6-propylpyrimidin-4-yl}piperidin-2-yl)ethanol]
14 | 0.02 | CCCc1cc(N2CCC[C@@H](N)C2)nc(Nc2ccc(C)c(C#N)c2)n1 [Example 153, (R)-5-[4-(3-aminopiperidin-1-yl)-6-propylpyrimidin-2-ylamino]-2-methylbenzonitrile]
15 | 0.02 | CCCc1cc(N2CCC[C@@H](NC(=O)CO)C2)nc(Nc2ccc(C)c(C#N)c2)n1 [Example 244, (R)—N-{1-[2-(3-cyano-4-methylphenylamino)-6-propylpyrimidin-4-yl]piperidin-3-yl}-2-hydroxyacetamide]
16 | 0.0024 | CCCc1cc(N2CCCC(NCC)C2)nc(Nc2ccc(C)c(C#N)c2)n1 (stereo not drawn) [Example 297, 5-[4-(3-ethylaminopiperidin-1-yl)-6-propylpyrimidin-2-ylamino]-2-methylbenzonitrile dihydrochloride]
17 | 0.073 | CCCc1cc(N2CCNC[C@H]2C)nc(Nc2cccc([N+](=O)[O-])c2)n1 [Example 120]
18 | 0.46 | CCCc1cc(N2CCCC3CCCCC32)nc(Nc2ccc(Cl)c([N+](=O)[O-])c2)n1 (stereo not drawn) [Example 190, N-(4-chloro-3-nitrophenyl)-4-(octahydroquinolin-1(2H)-yl)-6-propylpyrimidin-2-amine]
19 | 0.088 | CCCc1cc(N2CCC[C@H](NCCC(C)C)C2)nc(Nc2ccc(C)c(C#N)c2)n1 [Example 157, (S)-5-{4-[3-(isopentylamino)piperidin-1-yl]-6-propylpyrimidin-2-ylamino}-2-methylbenzonitrile]
20 | 0.063 | CCCc1cc(N2CCCCC2CCO)nc(Nc2ccc3cc[nH]c3c2)n1 (stereo not drawn) [Example 74, 2-{1-[2-(1H-indol-6-ylamino)-6-propylpyrimidin-4-yl]piperidin-2-yl}ethanol]

Row | EC50 [nM] | SMILES
21 | 0.243 | CCCc1cc(N2CCC[C@@H](NC)C2)nc(Nc2ccc(C)c(C)c2)n1 [Example 322, (R)—N-(3,4-dimethylphenyl)-4-[3-(methylamino)piperidin-1-yl]-6-propylpyrimidin-2-amine]
22 | 0.26 | CCCc1cc(N2CCCCC2)nc(Nc2ccc(F)c([N+](=O)[O-])c2)n1 [Example 40, N-(4-fluoro-3-nitrophenyl)-4-(piperidin-1-yl)-6-propylpyrimidin-2-amine]
23 | 0.19 | CCCCc1cc(N2CCCCC2CCO)nc(Nc2ccc(F)cc2)n1 (stereo not drawn) [Example 22, 2-{1-[6-butyl-2-(4-fluorophenylamino)pyrimidin-4-yl]piperidin-2-yl}ethanol]
24 | 0.416 | CCCc1cc(N2CCC[C@@H](NC)C2)nc(Nc2ccc(C)c(F)c2)n1 [Example 323, (R)—N-(3-fluoro-4-methylphenyl)-4-[3-(methylamino)piperidin-1-yl]-6-propylpyrimidin-2-amine]
25 | 0.019 | CCCc1cc(N2CCC[C@@H](NCC)C2)nc(Nc2cc(N)cc(C#N)c2)n1 [Example 292, (R)-3-amino-5-[4-(3-ethylaminopiperidin-1-yl)-6-propylpyrimidin-2-ylamino]benzonitrile]
26 | 0.012 | CCCCc1cc(N2CCCC(NC(C)=O)C2)nc(Nc2ccc(C)c(C#N)c2)n1 (stereo not drawn) [Example 298, N-{1-[6-butyl-2-(3-cyano-4-methylphenylamino)pyrimidin-4-yl]piperidin-3-yl}acetamide hydrochloride]
27 | 0.012 | CCCCc1cc(N2CCC[C@@H](NC(C)=O)C2)nc(Nc2ccc(F)c(C#N)c2)n1 [Example 240, (R)—N-{1-[6-butyl-2-(3-cyano-4-fluorophenylamino)pyrimidin-4-yl]piperidin-3-yl}acetamide]
28 | 0.072 | CCCc1cc(N2CCC[C@@H](NCc3cccs3)C2)nc(Nc2ccc(C)c(C#N)c2)n1 [Example 214, (R)-2-methyl-5-(4-propyl-6-{3-[(thiophen-2-ylmethyl)amino]piperidin-1-yl}pyrimidin-2-ylamino)benzonitrile]
29 | 0.24 | CCCc1cc(N2CCCC3CCCCC32)nc(Nc2ccc3cc[nH]c3c2)n1 (stereo not drawn) [Example 73, N-[4-(octahydroquinolin-1(2H)-yl)-6-propylpyrimidin-2-yl]-1H-indol-6-amine]
30 | 0.0012 | CCCCc1cc(N2CCC[C@@H](NC)C2)nc(Nc2cc(N)cc(C#N)c2)n1 [Example 315, (R)-3-amino-5-({4-butyl-6-[3-(methylamino)piperidin-1-yl]pyrimidin-2-yl}amino)benzonitrile]
31 | 0.004 | CCCc1cc(N2CCC[C@@H](NC)C2)nc(Nc2ccc(Cl)c(N)c2)n1 [Example 307, (R)-4-chloro-N^1-{4-[3-(methylamino)piperidin-1-yl]-6-propylpyrimidin-2-yl}benzene-1,3-diamine]
32 | 0.37 | CCCc1cc(N2CCCCC2CC)nc(Nc2cccc([N+](=O)[O-])c2)n1 (stereo not drawn) [Example 99, 4-(2-ethylpiperidin-1-yl)-N-(3-nitrophenyl)-6-propylpyrimidin-2-amine]
33 | 0.029 | CCCCc1cc(N2CCC[C@@H](N)C2)nc(Nc2ccc(N)cc2)n1 [Example 352, (R)—N^1-[4-(3-aminopiperidin-1-yl)-6-butylpyrimidin-2-yl]benzene-1,4-diamine]
34 | 0.016 | CCCc1cc(N2CCC[C@@H](NCCCSC)C2)nc(Nc2ccc(C)c(C#N)c2)n1 [Example 216, (R)-2-methyl-5-{4-[3-(3-methylthiopropylamino)piperidin-1-yl]-6-propylpyrimidin-2-ylamino}benzonitrile]
35 | 0.014 | CCCc1cc(N2CCC[C@@H](NC(C)=O)C2)nc(Nc2ccc(F)c(C(F)(F)F)c2)n1 [Example 277, (R)—N-{1-[2-(4-fluoro-3-trifluoromethylphenylamino)-6-propylpyrimidin-4-yl]piperidin-3-yl}acetamide]
36 | 0.042 | CCCc1cc(N2CCC[C@@H](N)C2)nc(Nc2ccc(N)c(C(F)(F)F)c2)n1 [Example 257, (R)—N^1-[4-(3-aminopiperidin-1-yl)-6-propylpyrimidin-2-yl]-3-(trifluoromethyl)benzene-1,4-diamine]
37 | 0.0072 | CCCc1cc(N2CCC[C@@H](N)C2)nc(Nc2ccc(C)c(C(F)(F)F)c2)n1 [Example 263, (R)-4-(3-aminopiperidin-1-yl)-N-[4-methyl-3-(trifluoromethyl)phenyl]-6-propylpyrimidin-2-amine]
38 | 0.132 | CCCCc1cc(N2CCC[C@@H](NC)C2)nc(Nc2ccc(OC)c(N)c2)n1 [Example 333, (R)—N^1-{4-butyl-6-[3-(methylamino)piperidin-1-yl]pyrimidin-2-yl}-4-methoxybenzene-1,3-diamine]
39 | 0.47 | CCCc1cc(N2CCCCC2CC)nc(Nc2cccc(OC)c2)n1 (stereo not drawn) [Example 102, 4-(2-ethylpiperidin-1-yl)-N-(3-methoxyphenyl)-6-propylpyrimidin-2-amine]
